# Results: patent US8017767B2, “Sucralose composition” (Tate & Lyle Public Limited Company, priority 2000, dated 2011)
# Test: Accelerated stability test (50° C.) with pH stability test of sucralose sample solution
# Assay type: physicochemical
# Conditions: for Days to pH Failure / Ph Stability: 50° C.; for Days to pH Failure: WHIRLPAK polyethylene bags, failure = pH drop ≧1.0; for Days to pH Failure / Initial pH: Example 1, sodium acetate in mother liquor varied; for Initial pH: sample solution (5 g in 50 ml pH-adjusted water) at time zero; for Initial pH difference: sample solution vs pH-adjusted water at time zero, (−) pH drop, (+) pH gain, Example 1
# Source text: Label seven 6 oz. and seven 18 oz. WHIRLPAK® polyethylene bags with indelible marker for each batch being tested for stability. Accurately weigh 25 g±0.01 g of sucralose into each 6 oz. WHIRLPAK® polyethylene bag. Heat or impulse seal the 6 oz. bag to ensure air tightness. Cut off any excess polyethylene at the top of the bag above the seal. Place the 6 oz. sealed bag into the 18 oz. bag and heat or impulse seal the 18 oz. bag to ensure air tightness. Roll down the top of the 18 oz. bag above the seal and bend the metal ties to form hooks.
# Place the prepared bags into an oven stabilized at 50° C.±0.5° C. by hanging them from racks by the bag hooks. The bags must be freely suspended and not touch anything. Record the time samples are placed into the oven.
# The pH stability test is conducted on the sucralose at time zero (the day the samples are placed in the oven, before the sucralose is exposed to elevated temperature) and every 24 hours until the batch being tested fails the test.
# Place approximately 100 ml of deionized water into a 150 ml beaker. Using 0.1 N hydrochloric acid and/or 0.1 N sodium hydroxide, adjust the pH of the water to be between 5.8 and 6.0. Record the pH reading.
# Accurately weigh 5 g±0.001 g of the product to be tested and transfer it to a 50 ml volumetric flask. Dissolve and bring to the mark by adding pH-adjusted water. If the sample to be tested is one that has been exposed to heat, remove one bag of the batch being tested from the oven and allow it to cool to room temperature before opening and sampling.
# Pour the solution into a 100 ml beaker containing a stir bar, and slowly stir the solution on a magnetic stirrer. Immerse the pH electrode in the sample, allow the pH reading to stabilize, and record the pH reading of the sample. If no pH drop is observed after all the bags have been tested, the experiment is void and the test must repeated with a larger number of bags.
# Record (to one decimal place) the pH of both the pH-adjusted water used and the sample sucralose solution. Subtract the pH of the […]. Report the result as (−) for a pH drop and (+) for a pH gain, e.g.:
# The sample fails the test if there is a pH drop of 1.0 pH unit or more. The pH stability of the batch is defined as the number of days until the pH drop between the sample solution and that of the pH adjusted water is ≧1.0.
# Samples of sucralose were tested for stability using the above procedures, but using bags of different moisture permeability. All other experimental details were the same. The TYVEK®/polyethylene bags are permeable; the WHIRLPAK® bags are less permeable. The A8080 bag consists of aluminum foil laminated to low-density polyethylene, which makes it very impermeable to moisture.
Days to pH Failure [Days],Initial pH,Initial pH difference,"Ph Stability (package A8080 (aluminum foil laminated to low-density polyethylene), impermeable) [days]","Ph Stability (package FF 91 TYVEK/Polyethylene, very permeable) [days]","Ph Stability (package WHIRLPAK Polyethylene, moderately permeable) [days]",SMILES
6,5.72,−0.20,,,,"OC[C@H]1O[C@H](O[C@]2(CCl)O[C@H](CCl)[C@@H](O)[C@@H]2O)[C@H](O)[C@@H](O)[C@H]1Cl [Sample 1, 4,1′,6′-trichloro-4,1′,6′-trideoxy-galactosucrose]"
6,5.73,−0.19,,,,"OC[C@H]1O[C@H](O[C@]2(CCl)O[C@H](CCl)[C@@H](O)[C@@H]2O)[C@H](O)[C@@H](O)[C@H]1Cl [Sample 2, 4,1′,6′-trichloro-4,1′,6′-trideoxy-galactosucrose]"
6,5.44,−0.48,,,,"OC[C@H]1O[C@H](O[C@]2(CCl)O[C@H](CCl)[C@@H](O)[C@@H]2O)[C@H](O)[C@@H](O)[C@H]1Cl [Sample 3, 4,1′,6′-trichloro-4,1′,6′-trideoxy-galactosucrose]"
6,5.64,−0.28,,,,"OC[C@H]1O[C@H](O[C@]2(CCl)O[C@H](CCl)[C@@H](O)[C@@H]2O)[C@H](O)[C@@H](O)[C@H]1Cl [Sample 4, 4,1′,6′-trichloro-4,1′,6′-trideoxy-galactosucrose]"
6,5.64,−0.28,,,,"OC[C@H]1O[C@H](O[C@]2(CCl)O[C@H](CCl)[C@@H](O)[C@@H]2O)[C@H](O)[C@@H](O)[C@H]1Cl [Sample 5, 4,1′,6′-trichloro-4,1′,6′-trideoxy-galactosucrose]"
4,5.53,−0.39,,,,"OC[C@H]1O[C@H](O[C@]2(CCl)O[C@H](CCl)[C@@H](O)[C@@H]2O)[C@H](O)[C@@H](O)[C@H]1Cl [Sample 6, 4,1′,6′-trichloro-4,1′,6′-trideoxy-galactosucrose]"
5,5.70,−0.22,,,,"OC[C@H]1O[C@H](O[C@]2(CCl)O[C@H](CCl)[C@@H](O)[C@@H]2O)[C@H](O)[C@@H](O)[C@H]1Cl [Sample 7, 4,1′,6′-trichloro-4,1′,6′-trideoxy-galactosucrose]"
5,5.19,−0.73,,,,"OC[C@H]1O[C@H](O[C@]2(CCl)O[C@H](CCl)[C@@H](O)[C@@H]2O)[C@H](O)[C@@H](O)[C@H]1Cl [Sample 8, 4,1′,6′-trichloro-4,1′,6′-trideoxy-galactosucrose]"
7,6.19,+0.23,,,,"OC[C@H]1O[C@H](O[C@]2(CCl)O[C@H](CCl)[C@@H](O)[C@@H]2O)[C@H](O)[C@@H](O)[C@H]1Cl [Sample 9, 4,1′,6′-trichloro-4,1′,6′-trideoxy-galactosucrose]"
5,5.90,−0.05,,,,"OC[C@H]1O[C@H](O[C@]2(CCl)O[C@H](CCl)[C@@H](O)[C@@H]2O)[C@H](O)[C@@H](O)[C@H]1Cl [Sample 10, 4,1′,6′-trichloro-4,1′,6′-trideoxy-galactosucrose]"
6,6.05,+0.10,,,,"OC[C@H]1O[C@H](O[C@]2(CCl)O[C@H](CCl)[C@@H](O)[C@@H]2O)[C@H](O)[C@@H](O)[C@H]1Cl [Sample 11, 4,1′,6′-trichloro-4,1′,6′-trideoxy-galactosucrose]"
6,5.85,−0.10,,,,"OC[C@H]1O[C@H](O[C@]2(CCl)O[C@H](CCl)[C@@H](O)[C@@H]2O)[C@H](O)[C@@H](O)[C@H]1Cl [Sample 12, 4,1′,6′-trichloro-4,1′,6′-trideoxy-galactosucrose]"
5,5.85,−0.10,,,,"OC[C@H]1O[C@H](O[C@]2(CCl)O[C@H](CCl)[C@@H](O)[C@@H]2O)[C@H](O)[C@@H](O)[C@H]1Cl [Sample 13, 4,1′,6′-trichloro-4,1′,6′-trideoxy-galactosucrose]"
6,5.95,+0.02,,,,"OC[C@H]1O[C@H](O[C@]2(CCl)O[C@H](CCl)[C@@H](O)[C@@H]2O)[C@H](O)[C@@H](O)[C@H]1Cl [Sample 14, 4,1′,6′-trichloro-4,1′,6′-trideoxy-galactosucrose]"
5,6.06,+0.13,,,,"OC[C@H]1O[C@H](O[C@]2(CCl)O[C@H](CCl)[C@@H](O)[C@@H]2O)[C@H](O)[C@@H](O)[C@H]1Cl [Sample 15, 4,1′,6′-trichloro-4,1′,6′-trideoxy-galactosucrose]"
6,6.20,+0.27,,,,"OC[C@H]1O[C@H](O[C@]2(CCl)O[C@H](CCl)[C@@H](O)[C@@H]2O)[C@H](O)[C@@H](O)[C@H]1Cl [Sample 16, 4,1′,6′-trichloro-4,1′,6′-trideoxy-galactosucrose]"
6,6.03,+0.10,,,,"OC[C@H]1O[C@H](O[C@]2(CCl)O[C@H](CCl)[C@@H](O)[C@@H]2O)[C@H](O)[C@@H](O)[C@H]1Cl [Sample 17, 4,1′,6′-trichloro-4,1′,6′-trideoxy-galactosucrose]"
6,6.00,+0.07,,,,"OC[C@H]1O[C@H](O[C@]2(CCl)O[C@H](CCl)[C@@H](O)[C@@H]2O)[C@H](O)[C@@H](O)[C@H]1Cl [Sample 18, 4,1′,6′-trichloro-4,1′,6′-trideoxy-galactosucrose]"
6,6.06,+0.13,,,,"OC[C@H]1O[C@H](O[C@]2(CCl)O[C@H](CCl)[C@@H](O)[C@@H]2O)[C@H](O)[C@@H](O)[C@H]1Cl [Sample 19, 4,1′,6′-trichloro-4,1′,6′-trideoxy-galactosucrose]"
6,6.09,+0.08,,,,"OC[C@H]1O[C@H](O[C@]2(CCl)O[C@H](CCl)[C@@H](O)[C@@H]2O)[C@H](O)[C@@H](O)[C@H]1Cl [Sample 20, 4,1′,6′-trichloro-4,1′,6′-trideoxy-galactosucrose]"
6,6.05,+0.10,,,,"OC[C@H]1O[C@H](O[C@]2(CCl)O[C@H](CCl)[C@@H](O)[C@@H]2O)[C@H](O)[C@@H](O)[C@H]1Cl [Sample 21, 4,1′,6′-trichloro-4,1′,6′-trideoxy-galactosucrose]"
6,6.08,+0.09,,,,"OC[C@H]1O[C@H](O[C@]2(CCl)O[C@H](CCl)[C@@H](O)[C@@H]2O)[C@H](O)[C@@H](O)[C@H]1Cl [Sample 22, 4,1′,6′-trichloro-4,1′,6′-trideoxy-galactosucrose]"
5,6.12,+0.13,,,,"OC[C@H]1O[C@H](O[C@]2(CCl)O[C@H](CCl)[C@@H](O)[C@@H]2O)[C@H](O)[C@@H](O)[C@H]1Cl [Sample 23, 4,1′,6′-trichloro-4,1′,6′-trideoxy-galactosucrose]"
5,6.02,+0.03,8,4,5,"OC[C@H]1O[C@H](O[C@]2(CCl)O[C@H](CCl)[C@@H](O)[C@@H]2O)[C@H](O)[C@@H](O)[C@H]1Cl [Sample 24, 4,1′,6′-trichloro-4,1′,6′-trideoxy-galactosucrose]"
6,6.03,+0.05,,,,"OC[C@H]1O[C@H](O[C@]2(CCl)O[C@H](CCl)[C@@H](O)[C@@H]2O)[C@H](O)[C@@H](O)[C@H]1Cl [Sample 25, 4,1′,6′-trichloro-4,1′,6′-trideoxy-galactosucrose]"
